Measurements from patent US20130338152A1, “FLUOROPHENYL BICYCLIC HETEROARYL COMPOUNDS” (IRM LLC, priority 2011, published 2013).
Where two headings read alike, the source gives them in different places.

Assays:
IGF1R [1] = biological target: T1, IGF1R (Homo sapiens, UniProt P08069); test: Enzymatic kinase assay (filter-binding/flashplate); assay type: biochemical
Procedure: (§1) Two methods were used to analyze phosphorylated peptides and proteins produced by the listed tyrosine and serine/threonine-specific protein kinases: either using a filter-binding assay (FB), or using a flashplate assay (FP). The activities of protein kinases were assayed in the presence or absence of inhibitors, by measuring the incorporation of ^33P from [γ^33P]ATP into appropriate substrates.
(§2) 96-well polypropylene microplates were used to assay the activity in the FB mode. To determine the inhibitory activity of compounds 10 μL of compound dilutions were pipetted into 96-well plates followed by the addition of 10 μL of assay mix and 10 μL of individual enzymes. With the addition of the enzymes the reactions were initiated and continued at RT. […] The final concentration of DMSO in the enzyme assays was 1%.
(§3) Flashplates are available as 96-well standard (STFPs) or as streptavidin-(SAFPs) or nickel coated FPs (NiFPs) from Perkin Elmer. STFPs are 96-well polystyrene microplates in which the interior of each well is permanently coated with a thin layer of polystyrene-based scintillant. Streptavidin flashplates (SAFP) are 96 or 384-well STFPs coated with streptavidin. SAFPs are suitable for a wide variety of assay applications which utilize biotinylated capture molecules. NiFP or nickel chelate flashplates are 96- or 384-well STFPs coated with nickel chelate. NiFPs are designed for in-plate, radiometric assays which utilize 4- or 6-histidine tagged proteins and peptides.
(§4) All kinase assays were performed in STFPs for 60 mins at RT and stopped with 50 μL of 0.5% H3PO4 except PKA which were carried out in polypropylene 96- and 384-well plates, respectively. […] All wells were then washed three times with 200 μL of 0.5% H3PO4 and the plates were dried at room temperature. The plates were sealed and counted in a microplate scintillation counter (TopCount NXT, TopCount NXT HTS). The final concentration of DMSO in the enzyme assays was 1%.

InsR = InsR (Homo sapiens, UniProt P06213); test: Enzymatic kinase assay (filter-binding/flashplate); assay type: biochemical
Sequence of InsR (P06213 28-1382, species assumed): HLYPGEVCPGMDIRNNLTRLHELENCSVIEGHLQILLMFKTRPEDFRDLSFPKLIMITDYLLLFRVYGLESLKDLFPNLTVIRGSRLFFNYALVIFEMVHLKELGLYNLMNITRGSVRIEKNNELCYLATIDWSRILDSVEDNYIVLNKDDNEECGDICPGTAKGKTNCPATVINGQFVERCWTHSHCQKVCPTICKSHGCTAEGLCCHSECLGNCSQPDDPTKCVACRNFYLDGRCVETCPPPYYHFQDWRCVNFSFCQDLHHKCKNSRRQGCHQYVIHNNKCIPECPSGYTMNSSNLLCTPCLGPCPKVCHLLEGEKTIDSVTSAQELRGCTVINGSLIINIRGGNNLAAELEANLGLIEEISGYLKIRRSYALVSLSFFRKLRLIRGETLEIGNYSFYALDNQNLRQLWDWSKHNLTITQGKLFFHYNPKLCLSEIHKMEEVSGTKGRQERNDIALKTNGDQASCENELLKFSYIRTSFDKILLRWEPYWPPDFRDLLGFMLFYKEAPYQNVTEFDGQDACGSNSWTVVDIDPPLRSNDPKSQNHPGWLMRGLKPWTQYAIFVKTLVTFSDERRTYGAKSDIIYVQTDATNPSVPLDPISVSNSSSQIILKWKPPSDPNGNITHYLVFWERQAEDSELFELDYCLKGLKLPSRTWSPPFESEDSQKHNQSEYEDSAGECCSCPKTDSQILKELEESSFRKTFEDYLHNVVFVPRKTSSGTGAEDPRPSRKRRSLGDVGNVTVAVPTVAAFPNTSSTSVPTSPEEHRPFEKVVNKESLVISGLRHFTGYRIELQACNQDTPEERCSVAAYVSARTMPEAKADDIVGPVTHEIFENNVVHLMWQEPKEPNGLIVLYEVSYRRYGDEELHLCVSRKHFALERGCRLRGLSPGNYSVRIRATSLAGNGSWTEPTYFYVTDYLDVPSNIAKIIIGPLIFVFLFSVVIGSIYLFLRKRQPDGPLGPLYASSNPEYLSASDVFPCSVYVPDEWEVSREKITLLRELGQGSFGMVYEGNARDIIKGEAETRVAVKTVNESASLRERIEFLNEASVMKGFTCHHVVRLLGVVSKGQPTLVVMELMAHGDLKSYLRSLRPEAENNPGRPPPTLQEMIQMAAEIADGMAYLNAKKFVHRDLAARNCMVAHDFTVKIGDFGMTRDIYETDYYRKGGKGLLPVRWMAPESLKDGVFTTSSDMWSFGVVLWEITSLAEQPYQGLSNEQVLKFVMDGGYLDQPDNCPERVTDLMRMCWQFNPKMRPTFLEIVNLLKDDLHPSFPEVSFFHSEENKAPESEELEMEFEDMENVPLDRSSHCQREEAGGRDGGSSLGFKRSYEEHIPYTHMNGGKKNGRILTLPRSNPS
Procedure: as §1, §2, §3, §4

Aurora A = biological target: T2, Aurora A (Homo sapiens, UniProt O14965); test: Enzymatic kinase assay; assay type: biochemical
T2 sequence (O14965 1-403): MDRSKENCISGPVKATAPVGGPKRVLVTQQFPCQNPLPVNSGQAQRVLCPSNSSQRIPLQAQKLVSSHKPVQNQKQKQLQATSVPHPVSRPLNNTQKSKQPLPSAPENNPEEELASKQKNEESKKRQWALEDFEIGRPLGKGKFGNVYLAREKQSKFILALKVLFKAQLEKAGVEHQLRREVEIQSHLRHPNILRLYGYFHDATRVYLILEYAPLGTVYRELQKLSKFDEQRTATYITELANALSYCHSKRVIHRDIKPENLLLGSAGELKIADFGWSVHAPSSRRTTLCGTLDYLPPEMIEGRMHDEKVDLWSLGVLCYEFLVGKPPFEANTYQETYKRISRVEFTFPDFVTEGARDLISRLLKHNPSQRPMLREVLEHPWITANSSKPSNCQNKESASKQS
Procedure: as §1, §2, §3, §4

CDK2A = CDK2A (Homo sapiens, UniProt P24941); test: Enzymatic kinase assay; assay type: biochemical
Procedure: as §1, §2, §3, §4

COT1 = COT1 (Homo sapiens, UniProt P41279); test: Enzymatic kinase assay; assay type: biochemical
Procedure: as §1, §2, §3, §4

ERK2 = ERK2 (Homo sapiens, UniProt P28482); test: Enzymatic kinase assay; assay type: biochemical
Procedure: as §1, §2, §3, §4

EphA4 = EphA4 (Homo sapiens, UniProt P54764); test: Enzymatic kinase assay; assay type: biochemical
Procedure: as §1, §2, §3, §4

FGFR-4 = FGFR-4 (Homo sapiens, UniProt P22455); test: Enzymatic kinase assay; assay type: biochemical
Procedure: as §1, §2, §3, §4

GSK3beta = GSK3beta (Homo sapiens, UniProt P49841); test: Enzymatic kinase assay; assay type: biochemical
Procedure: as §1, §2, §3, §4

HER2 = HER2 (Homo sapiens, UniProt P04626); test: Enzymatic kinase assay; assay type: biochemical
Procedure: as §1, §2, §3, §4

JAK2 = JAK2 (Homo sapiens, UniProt O60674); test: Enzymatic kinase assay; assay type: biochemical
Procedure: as §1, §2, §3, §4

KDR = KDR (Homo sapiens, UniProt P35968); test: Enzymatic kinase assay; assay type: biochemical
Sequence of KDR (P35968 20-1356, species assumed): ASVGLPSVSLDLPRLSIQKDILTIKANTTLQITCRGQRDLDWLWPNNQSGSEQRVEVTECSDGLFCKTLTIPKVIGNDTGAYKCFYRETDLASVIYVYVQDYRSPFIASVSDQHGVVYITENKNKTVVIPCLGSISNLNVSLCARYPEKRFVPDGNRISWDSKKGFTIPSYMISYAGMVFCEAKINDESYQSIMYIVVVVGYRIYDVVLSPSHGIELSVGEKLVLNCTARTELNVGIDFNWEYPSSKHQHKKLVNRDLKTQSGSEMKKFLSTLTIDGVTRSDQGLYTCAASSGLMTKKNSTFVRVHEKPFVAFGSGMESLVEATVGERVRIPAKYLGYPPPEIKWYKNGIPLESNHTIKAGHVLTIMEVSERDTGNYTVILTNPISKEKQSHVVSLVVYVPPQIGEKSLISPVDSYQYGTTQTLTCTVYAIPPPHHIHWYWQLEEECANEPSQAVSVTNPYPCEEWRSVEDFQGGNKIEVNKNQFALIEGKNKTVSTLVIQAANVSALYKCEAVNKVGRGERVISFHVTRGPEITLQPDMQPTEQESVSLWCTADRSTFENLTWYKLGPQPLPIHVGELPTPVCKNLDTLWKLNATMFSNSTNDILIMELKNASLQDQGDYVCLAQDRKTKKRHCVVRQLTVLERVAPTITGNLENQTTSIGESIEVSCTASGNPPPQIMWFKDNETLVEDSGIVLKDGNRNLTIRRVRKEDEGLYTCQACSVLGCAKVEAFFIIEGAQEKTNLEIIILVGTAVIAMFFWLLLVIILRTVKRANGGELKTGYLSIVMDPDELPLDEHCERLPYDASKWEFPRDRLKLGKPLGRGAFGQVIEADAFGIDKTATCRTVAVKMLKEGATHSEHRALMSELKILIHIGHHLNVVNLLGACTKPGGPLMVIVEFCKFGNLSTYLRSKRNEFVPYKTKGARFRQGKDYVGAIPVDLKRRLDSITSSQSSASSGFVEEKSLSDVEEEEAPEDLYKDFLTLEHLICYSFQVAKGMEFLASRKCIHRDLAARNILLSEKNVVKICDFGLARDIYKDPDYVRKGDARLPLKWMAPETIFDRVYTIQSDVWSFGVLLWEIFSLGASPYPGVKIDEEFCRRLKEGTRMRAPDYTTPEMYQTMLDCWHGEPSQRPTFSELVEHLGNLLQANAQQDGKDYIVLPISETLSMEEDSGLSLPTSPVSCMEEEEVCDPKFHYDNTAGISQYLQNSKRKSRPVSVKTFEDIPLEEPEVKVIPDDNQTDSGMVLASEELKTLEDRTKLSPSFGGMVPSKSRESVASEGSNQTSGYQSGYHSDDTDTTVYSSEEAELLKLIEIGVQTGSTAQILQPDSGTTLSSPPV
Procedure: as §1, §2, §3, §4

LCK = LCK (Homo sapiens, UniProt P06239); test: Enzymatic kinase assay; assay type: biochemical
Procedure: as §1, §2, §3, §4

MK2 = MK2 (Homo sapiens, UniProt P49137); test: Enzymatic kinase assay; assay type: biochemical
Procedure: as §1, §2, §3, §4

P38a = P38a (Homo sapiens, UniProt Q16539); test: Enzymatic kinase assay; assay type: biochemical
Procedure: as §1, §2, §3, §4

PDGFRa = PDGFRa (Homo sapiens, UniProt P16234); test: Enzymatic kinase assay; assay type: biochemical
Procedure: as §1, §2, §3, §4

RET = RET (Homo sapiens, UniProt P07949); test: Enzymatic kinase assay; assay type: biochemical
Sequence of RET (P07949 29-1114, species assumed): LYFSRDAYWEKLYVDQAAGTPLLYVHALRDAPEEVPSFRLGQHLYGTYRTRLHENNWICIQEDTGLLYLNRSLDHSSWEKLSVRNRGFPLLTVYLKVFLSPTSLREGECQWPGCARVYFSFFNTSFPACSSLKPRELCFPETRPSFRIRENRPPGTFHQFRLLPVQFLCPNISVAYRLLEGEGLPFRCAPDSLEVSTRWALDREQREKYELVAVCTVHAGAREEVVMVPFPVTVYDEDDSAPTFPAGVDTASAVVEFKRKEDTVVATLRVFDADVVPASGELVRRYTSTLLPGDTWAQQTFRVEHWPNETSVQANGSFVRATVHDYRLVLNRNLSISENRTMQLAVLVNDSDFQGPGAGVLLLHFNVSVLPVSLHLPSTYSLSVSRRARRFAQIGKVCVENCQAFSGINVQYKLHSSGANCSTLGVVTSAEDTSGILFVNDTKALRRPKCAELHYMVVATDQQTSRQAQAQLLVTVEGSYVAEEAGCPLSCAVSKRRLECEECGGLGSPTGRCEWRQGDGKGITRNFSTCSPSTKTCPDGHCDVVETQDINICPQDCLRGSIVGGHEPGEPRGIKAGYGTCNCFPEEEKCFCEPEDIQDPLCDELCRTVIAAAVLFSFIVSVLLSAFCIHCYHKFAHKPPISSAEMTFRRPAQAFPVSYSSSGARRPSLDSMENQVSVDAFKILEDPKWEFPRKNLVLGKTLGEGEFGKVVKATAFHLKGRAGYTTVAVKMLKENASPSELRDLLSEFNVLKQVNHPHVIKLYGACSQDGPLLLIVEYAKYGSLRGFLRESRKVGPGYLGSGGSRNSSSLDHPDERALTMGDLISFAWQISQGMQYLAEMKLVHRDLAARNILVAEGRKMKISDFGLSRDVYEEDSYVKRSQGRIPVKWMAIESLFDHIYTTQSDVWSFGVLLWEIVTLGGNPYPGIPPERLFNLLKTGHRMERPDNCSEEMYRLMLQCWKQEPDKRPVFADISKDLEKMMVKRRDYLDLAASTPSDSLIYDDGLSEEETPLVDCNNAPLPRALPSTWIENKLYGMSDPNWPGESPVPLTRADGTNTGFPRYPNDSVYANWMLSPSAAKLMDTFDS
Procedure: as §1, §2, §3, §4

TYK2 = TYK2 (Homo sapiens, UniProt P29597); test: Enzymatic kinase assay; assay type: biochemical
Procedure: as §1, §2, §3, §4

cABLT315 = cABLT315 (Homo sapiens, UniProt P00519, T315I); test: Enzymatic kinase assay; assay type: biochemical
Procedure: as §1, §2, §3, §4

cKIT = cKIT (Homo sapiens, UniProt P10721); test: Enzymatic kinase assay; assay type: biochemical
Procedure: as §1, §2, §3, §4

cMET = cMET (Homo sapiens, UniProt P08581); test: Enzymatic kinase assay; assay type: biochemical
Procedure: as §1, §2, §3, §4

hERG channels = hERG channels (Homo sapiens, UniProt Q12809); test: biochemical
IGF1R [2] = biological target: T1, IGF1R; test: Cellular IGF-1R assay: inhibition of IGF1R phosphorylation in Hek293 cells, capture ELISA (MSD); assay type: cell-based; design: expressed in transfected cells; host or cells: Hek293 (Hek293-IGF1R); settings: IGF-triggered receptor phosphorylation
Procedure: IVa. Cellular IGF-1R and InsR Assays
Compound-mediated inhibition of IGF1R and INSR phosphorylation in Hek293 cells transduced with the corresponding receptors is assessed in a capture ELISA format using the MSD (Meso Scale Discovery) platform. Briefly, 30′000 cells washed and diluted in starvation medium (DMEM high glucose supplemented with 0.1% BSA) are seeded in 90 μL per well into 96-well plates pre-coated with poly-D-lysine (0.1 mg/mL in PBS/O). After 24 h incubation at 37° C. and 5% CO2, dose-response effects are determined with 3-fold serial compound dilutions, starting at 10 μM. The final vehicle concentration is 0.1% DMSO in all wells. Following pre-incubation with compounds for 1 h, receptor phosphorylation is triggered by a 10 min exposure to 1.0 ng/μL IGF for Hek293-IGF1R cells, and 5.0 ng/μL insulin for Hek293-InsR cells. Cell lysis is achieved by addition of 80 μL MSD lysis buffer per aspirated well, incubation on ice for 20 min, and a freeze-thaw cycle. Target phosphorylation is then assessed by transferring volumes corresponding to approx. 6 μg Hek293-IGF1R or 0.6 μg Hek293-InsR lysates to MSD assay plates pre-coated with total-IGF1R or total-InsR Abs, respectively. […] Immune complexes are detected by a SULFO-Tag™-coupled anti-rabbit IgG antibody in the presence of 150 μL MSD read-buffer. Light emission at 620 nm triggered by application of electric current is recorded on a MSD Sectorlmager 6000. Acquired raw data (mean Ru-ECL units) are processed in an Excel analysis template. The plate blank (MSD lysis buffer) is subtracted from all data points. The effect of a particular test compound concentration on receptor phosphorylation is expressed relative to the window defined by ligand-stimulated vs unstimulated control cells (set as 100%). IC50 values [nM] are determined using 4-parametric curve-fitting (XLfit software, V4.3.2).

C-Abl = C-Abl (Homo sapiens, UniProt P00519); test: Kinase assay of known compound and phenol metabolite X; assay type: biochemical; settings: metabolite comparison table
c-src = c-src (Homo sapiens, UniProt P12931); test: as above; assay type: biochemical; settings: metabolite comparison table
EphB4 = EphB4 (Homo sapiens, UniProt P54760); test: as above; assay type: biochemical; settings: metabolite comparison table
[3] = enzymatic, read-out: InsR IC50 values
[4] = enzymatic, read-out: RET IC50 values (converted)

T1 sequence (P08069 31-1367): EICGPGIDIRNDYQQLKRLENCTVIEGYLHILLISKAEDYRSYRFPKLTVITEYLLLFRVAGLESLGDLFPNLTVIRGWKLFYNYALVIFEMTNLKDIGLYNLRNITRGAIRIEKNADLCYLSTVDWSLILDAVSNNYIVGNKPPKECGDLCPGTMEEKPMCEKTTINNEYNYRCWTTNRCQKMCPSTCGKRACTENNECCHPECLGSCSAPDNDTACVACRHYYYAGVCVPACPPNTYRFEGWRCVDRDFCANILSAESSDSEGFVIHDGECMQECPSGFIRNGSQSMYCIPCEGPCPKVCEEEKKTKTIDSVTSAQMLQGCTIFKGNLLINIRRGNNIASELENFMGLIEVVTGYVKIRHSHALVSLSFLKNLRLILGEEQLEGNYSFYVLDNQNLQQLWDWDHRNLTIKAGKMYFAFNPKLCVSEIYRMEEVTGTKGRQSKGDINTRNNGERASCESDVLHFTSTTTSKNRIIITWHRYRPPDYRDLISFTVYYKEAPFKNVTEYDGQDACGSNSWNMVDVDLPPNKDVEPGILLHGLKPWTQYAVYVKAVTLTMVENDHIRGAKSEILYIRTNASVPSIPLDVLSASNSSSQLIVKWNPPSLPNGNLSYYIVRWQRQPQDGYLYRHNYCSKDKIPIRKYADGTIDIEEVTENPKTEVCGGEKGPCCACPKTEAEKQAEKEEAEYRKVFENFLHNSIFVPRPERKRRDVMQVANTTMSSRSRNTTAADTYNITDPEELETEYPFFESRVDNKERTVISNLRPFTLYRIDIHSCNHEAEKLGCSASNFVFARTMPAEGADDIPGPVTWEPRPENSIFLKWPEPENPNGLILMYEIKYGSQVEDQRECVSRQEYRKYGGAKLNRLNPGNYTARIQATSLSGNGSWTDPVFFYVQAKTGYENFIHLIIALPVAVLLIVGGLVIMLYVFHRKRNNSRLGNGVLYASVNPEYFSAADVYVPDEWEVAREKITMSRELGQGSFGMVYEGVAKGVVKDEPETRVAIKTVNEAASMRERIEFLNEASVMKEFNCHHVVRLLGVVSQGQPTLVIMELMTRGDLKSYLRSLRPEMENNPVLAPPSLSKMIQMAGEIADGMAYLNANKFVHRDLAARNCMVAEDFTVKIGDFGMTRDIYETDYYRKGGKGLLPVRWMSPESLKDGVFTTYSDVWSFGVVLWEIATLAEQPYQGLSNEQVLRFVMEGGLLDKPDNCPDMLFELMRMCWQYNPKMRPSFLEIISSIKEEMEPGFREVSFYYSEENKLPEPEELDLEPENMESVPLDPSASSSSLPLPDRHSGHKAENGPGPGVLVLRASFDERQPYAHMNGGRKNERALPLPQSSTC

Row | Compound | IC50 (IGF1R [1]) [µM] | IC50 (InsR; [3]) [µM] | IC50 (Aurora A) [µM] | IC50 (CDK2A) [µM] | IC50 (COT1) [µM] | IC50 (ERK2) [µM] | IC50 (EphA4) [µM] | IC50 (FGFR-4) [µM] | IC50 (GSK3beta) [µM] | IC50 (HER2) [µM] | IC50 (JAK2) [µM] | IC50 (KDR) [µM] | IC50 (LCK) [µM] | IC50 (MK2) [µM] | IC50 (P38a) [µM] | IC50 (PDGFRa) [µM] | IC50 (RET; [4]) [µM] | IC50 (TYK2) [µM] | IC50 (cABLT315) [µM] | IC50 (cKIT) [µM] | other results
1 | Nc1ncnc2c1c(-c1cccc(OC[C@@H]3CCCO3)c1F)cn2[C@H]1C[C@@H](CN2CC[S+]([O-])CC2)C1 [Example 6, 5-{2-Fluoro-3-[(S)-1-(tetrahydro-furan-2-yl)methoxy]-phenyl}-7-[cis-3-(1-oxo-thiomorpholin-4-ylmethyl)-cyclobutyl]-7H-pyrrolo[2,3-d]pyrimidin-4-ylamine] | 0.0038 | 0.039 | > 10 | > 10 | > 10 | > 10 | > 10 | > 10 | > 10 | > 10 | > 10 | 5.7 | 8.6 | > 10 | > 10 | 8.3 | 3.4 | > 10 | > 10 | 0.77 | IC50 (cMET): > 10 µM; IC50 (hERG channels): > 30 µM; IC50 (IGF1R [2]): 0.01 µM
2 | [2H]C1([2H])C([2H])([2H])C2(COc3cccc(-c4cn([C@H]5C[C@@H](N6CC[S+]([O-])CC6)C5)c5ncnc(N)c45)c3F)OC1([2H])C([2H])([2H])C2([2H])[2H] [Example 18, d9-5-[2-Fluoro-3-(7-oxa-bicyclo[2.2.1]hept-1-ylmethoxy)-phenyl]-7-[cis-3-(1-oxo-thiomorpholin-4-yl)-cyclobutyl]-7H-pyrrolo[2,3-d]pyrimidin-4-ylamine] | 0.015 | 0.043 | > 10 | > 10 | > 10 | > 10 | > 10 | > 10 | > 10 | > 10 | > 10 | > 10 | > 10 | > 10 | > 10 | > 10 | > 10 | > 10 | > 10 | > 10 | IC50 (cMET): > 10 µM; IC50 (hERG channels): > 30 µM; IC50 (IGF1R [2]): 0.004 µM
3 | Nc1ncnc2c1c(-c1cccc(OCc3ccccc3)c1)cn2[C@H]1C[C@@H](CN2CCC2)C1 [WO02/092599, ex. 102] |  |  |  |  |  |  |  |  |  |  |  |  |  |  |  |  |  |  |  |  | IC50 (InsR; metabolite comparison table, read-out: InsR IC50): 0.23 µM; IC50 (RET; metabolite comparison table, read-out: RET IC50): 4.4 µM; IC50 (C-Abl): > 10 µM; IC50 (c-src): > 10 µM; IC50 (EphB4): > 10 µM
